These results are taken from patent US20150079207A1, “Method for manufacturing Smilax China L root extract having increased active ingredients and beverage composition containing the extract fordetoxification” (priority 2013, published 2015).

Holding throughout (type): cell-based
The subject of test [1] is HepG2 cells. As to the kind of experiment: Inhibition of formation of oxidatively damaged adducts caused by alcohol (DCFH-DA assay). The note with it: 50, 100, 250 μM 2 h, then ethanol at IC50 24 h. The protocol: The DCFH-DA assay was generally described with reference to Evaluation Example 3.
Thereafter, the experimental groups and the control were treated with ethanol at an IC50 concentration, and cultured for 24 hours. Then, trypsin-EDTA was divided, and the cells were detached, and treated with a 5 μM DCFH-DA reagent. After 30 minutes, the fluorescence was measured at an excitation wavelength of 488 nm and an emission wavelength of 525 nm using a multi-microplate reader (Thermo scientific).

Test [2] relates to HepG2 cells. As to the kind of experiment: Inhibition of formation of oxidatively damaged adducts caused by nicotine (DCFH-DA assay). The note with it: 50, 100, 250 μM (mixture 50, 100 μM) 2 h, then nicotine at IC50 24 h. The text has this: When non-polar, uncharged DCFH-DA easily enters the cytoplasm through cell membranes, DCFH-DA is converted into 2′,7′-dichlorofluorescin (DCFH) showing no fluorescence by an intracellular enzyme, esterase, and DCFH is then oxidized into 2′,7′-dichlorofluorescein (DCF) showing fluorescence by various active oxygen produced in the cells. Since the measured fluorescence intensity is in proportion to a degree of intracellular oxidation, an effect of the index materials on oxidative damage of liver cells by nicotine was evaluated using the principle.
Thereafter, the experimental groups and the control were treated with nicotine at an IC50 concentration, and cultured for 24 hours. Trypsin-EDTA was divided, and the cells were detached, and treated with a 5 μM DCFH-DA reagent. After 30 minutes, the fluorescence was measured at an excitation wavelength of 488 nm and an emission wavelength of 525 nm using a multi-microplate reader (Thermo scientific).

The subject of test [3] is HepG2 cells. Kind of test: Protective effect on hepatotoxicity caused by alcohol (MTT assay). Particulars: 50, 100, 250 μM 2 h, then ethanol at IC50 24 h. On the procedure: The MTT assay was generally described with reference to Evaluation Example 2.
Thereafter, the experimental groups and the control were treated with an aqueous solution of ethanol (50%) at an IC50 concentration, and cultured for 24 hours. After the medium was removed, the experimental groups and the control were treated with a 3-4,5 dimethylthiazol-2,5 diphenyltetrazolium bromide (MTT) reagent, and then cultured for 4 hours. Then, the medium was removed, and the experimental groups and the control were treated with a DMSO reagent, and measured for absorbance at a wavelength of 570 nm using a multi-microplate reader (Thermo scientific). Also, the cell viability was calculated using Equation 1.

Test [4] relates to HepG2 cells. Kind of test: Conversion rate of nicotine into cotinine (cotinine quantitative assay). Particulars: HepG2 after 1 mM nicotine; 50, 100, 250 μM (mixture 50, 100 μM); 10-120 min.
Method: HepG2 (passage #99-100) cells kindly provided from the Korean Cell Line Bank were sub-cultured, divided into a 96 well plate, and then cultured under conditions of 5% CO2 and 37° C. until the cells reached 100% confluence, and the medium was removed. Thereafter, the HepG2 cells were cultured for a day in a medium containing 1 mM nicotine. […] Subsequently, the cultured cells were dividedly treated with trypsin-EDTA, and detached, and centrifuged to collect a cell pellet. The cell pellet was suspended in 100 μl of PBS, and homogenated for 30 seconds using an ultrasonicator. 100 μl of a 4M sodium acetate buffer (pH 4.7), 40 μl of 1.5M potassium cyanide, 40 μl of 0.4M chloramine T, and 200 μl of 78 mM barbituric acid (in acetone/water (50/50)) were sequentially added to the homogenated cells, mixed for 10 seconds, and then reacted at room temperature for 15 minutes. Then, 40 μl of 1M sodium metabisulfite was added to the reaction mixture to stop the reaction. Then, the reaction mixture was measured for absorbance at a wavelength of 490 nm using a multi-microplate reader (Thermo scientific), and the absorbance of the reaction mixture was quantified by comparison to the standard curve of a cotinine sample.

In the case of `Oc1cc(O)cc(/C=C/c2ccc(O)cc2O)c1` [oxyresveratrol], in the test on HepG2 cells [1], the “relative DCF fluorescence intensity (oxidatively damaged adducts by alcohol) vs alcohol-only control” value is “relative DCF fluorescence intensity tended to decrease”. Besides, in the test with HepG2 cells [2], the “relative DCF fluorescence intensity (oxidatively damaged adducts by nicotine) vs nicotine-only control” value is on record as “relative DCF fluorescence intensity tended to decrease”. Further, in the test with HepG2 cells [3], the “absorbance (MTT, cell viability) vs alcohol-only control” value is on record as “absorbance increased as the concentration of the index material increased”. In addition, the “cotinine conversion rate vs nicotine-only control” value with HepG2 cells [4] was “cotinine conversion rate increased”.

For `Oc1ccc(C=Cc2cc(O)cc(O)c2)cc1` [resveratrol], in the test on HepG2 cells [3], the “absorbance (MTT, cell viability) vs alcohol-only control” value was “absorbance increased as the concentration of the index material increased”. Further, in the test on HepG2 cells [4], the “cotinine conversion rate vs nicotine-only control” value is “cotinine conversion rate increased”.
